According to patent US10183014B2, “Ocular formulations for drug-delivery and protection of the anterior segment of the eye” (PanOptica, Inc., priority 2014, dated 2019):
Read-outs that look alike come from different tables or passages of the source.

Key:
[1] = Ocular pharmacokinetics of formulations, Example 20-5; format: in vivo, Dutch Belted rabbits; conditions: TRIS 0.60%, glycerol 2%, HEC 0.2%, HPMC 0.08%, Vitamin K3 1 μM, 1 hr post dose on Day 5
Method: The study design (Table 19-1) consisted of forty-seven (47) Dutch Belted rabbits, each receiving a 30 μL bilateral topical ocular dose. Various suspension formulations of the present application were evaluated and compared against a cyclodextrin-based eye drops solution (Control Group 1, Table 19-1). Formula II or Compound-I was used in the test suspensions as well as the Eye Drops solution.
Ocular sampling occurred one hour following the first daily dose on Day 5 for all groups. Whole blood samples using K2EDTA as an anticoagulant were collected from all animals on Day 5, 1 hour post dose. The whole blood was placed on ice until samples were spun in a centrifuge to separate the plasma. Aqueous humor, conjunctiva, cornea, central retina, peripheral retina, central choroid, and peripheral choroid samples were collected following necropsy. Samples were then frozen at −70° C. or lower. For all Groups 1-15, plasma, central retina, central choroid, and cornea samples were assayed. For Group 5 only, samples were analyzed for Vitamin K3.
An analytical method for the analysis of Vitamin K3 was determined in plasma, central retina, central choroid, and cornea samples from Group 5 animals. A calibration curve prepared in control vitreous humor was used to determine the concentration of Vitamin K3. Internal standard (IS) responses were inconsistent for the central choroid and plasma samples. Thus, positive plasma results were likely due to the reduced IS response.

AURKB (Aurora B) = AURKB (Aurora B) (Homo sapiens, UniProt Q96GD4); test: In vitro inhibition of tyrosine kinases; format: biochemical; conditions: read-out: Mean % Inhibition at 1 μM Compound-I; 1 μM (568.9 ng/mL)
Chain of AURKB (Aurora B) (Q96GD4 whole entry, species assumed): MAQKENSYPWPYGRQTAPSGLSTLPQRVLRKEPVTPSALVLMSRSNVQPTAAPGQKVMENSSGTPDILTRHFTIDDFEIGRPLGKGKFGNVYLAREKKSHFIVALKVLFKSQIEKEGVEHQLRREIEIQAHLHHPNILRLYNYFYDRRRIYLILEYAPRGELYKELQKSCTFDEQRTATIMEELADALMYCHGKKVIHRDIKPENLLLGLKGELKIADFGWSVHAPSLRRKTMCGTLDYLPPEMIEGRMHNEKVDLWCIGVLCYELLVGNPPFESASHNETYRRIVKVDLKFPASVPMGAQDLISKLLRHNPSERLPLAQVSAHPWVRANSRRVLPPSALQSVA

Cl.NC(=O)c1c(OCc2c(F)cc(Br)cc2F)nsc1NC(=O)NCCCCN1CCCC1 [Compound-I, 3-[(4-bromo-2,6-difluorophenyl)methoxy]-5-[[[[4-(1-pyrrolidinyl)butyl]amino]carbonyl]amino]-4-isothiazolecarboxamide hydrochloride]
concentration at 1 h ([1]; Group 3: 4 mg/mL suspension, 3 μm particles, pH 6, QD for 4 days, read-out: Cornea concentration): 10200 nM | Plasma concentration ([1]; Group 4: 4 mg/mL suspension (Control), 50 μm particles (Native), pH 6, QD for 4 days): 5.98 nM | concentration at 1 h ([1]; Group 4: 4 mg/mL suspension (Control), 50 μm particles (Native), pH 6, QD for 4 days, read-out: Central Choroid concentration): 128 nM | concentration at 1 h ([1]; Group 4: 4 mg/mL suspension (Control), 50 μm particles (Native), pH 6, QD for 4 days, read-out: Central Retina concentration): 73.5 nM | concentration at 1 h ([1]; Group 4: 4 mg/mL suspension (Control), 50 μm particles (Native), pH 6, QD for 4 days, read-out: Cornea concentration): 3930 nM | Plasma concentration ([1]; Group 6: 4 mg/mL suspension, 50 μm particles, pH 6, BID for 4 days): 4.15 nM | concentration at 1 h ([1]; Group 6: 4 mg/mL suspension, 50 μm particles, pH 6, BID for 4 days, read-out: Central Choroid concentration): 199 nM | concentration at 1 h ([1]; Group 6: 4 mg/mL suspension, 50 μm particles, pH 6, BID for 4 days, read-out: Central Retina concentration): 44.1 nM | concentration at 1 h ([1]; Group 6: 4 mg/mL suspension, 50 μm particles, pH 6, BID for 4 days, read-out: Cornea concentration): 6410 nM | Plasma concentration ([1]; Group 8: 1 mg/mL suspension, 50 μm particles, pH 6, BID for 4 days): 2.11 nM | concentration at 1 h ([1]; Group 8: 1 mg/mL suspension, 50 μm particles, pH 6, BID for 4 days, read-out: Central Choroid concentration): 70.8 nM | concentration at 1 h ([1]; Group 8: 1 mg/mL suspension, 50 μm particles, pH 6, BID for 4 days, read-out: Central Retina concentration): 34.2 nM | concentration at 1 h ([1]; Group 8: 1 mg/mL suspension, 50 μm particles, pH 6, BID for 4 days, read-out: Cornea concentration): 1720 nM | Plasma concentration ([1]; Group 10: 2 mg/mL suspension, 50 μm particles, pH 6, BID for 4 days): 3.76 nM | concentration at 1 h ([1]; Group 10: 2 mg/mL suspension, 50 μm particles, pH 6, BID for 4 days, read-out: Central Retina concentration): 50.7 nM | Plasma concentration ([1]; Group 13 (different batch of Compound-I): 4 mg/mL suspension, 50 μm particles, pH 6, QD for 4 days): 7.09 nM | concentration at 1 h ([1]; Group 13 (different batch of Compound-I): 4 mg/mL suspension, 50 μm particles, pH 6, QD for 4 days, read-out: Central Retina concentration): 76.6 nM | concentration at 1 h ([1]; Group 13 (different batch of Compound-I): 4 mg/mL suspension, 50 μm particles, pH 6, QD for 4 days, read-out: Cornea concentration): 8550 nM | Plasma concentration ([1]; Group 14 (different batch of Compound-I): 4 mg/mL suspension, 50 μm particles, pH 6, QD for 4 days): 2.68 nM | concentration at 1 h ([1]; Group 14 (different batch of Compound-I): 4 mg/mL suspension, 50 μm particles, pH 6, QD for 4 days, read-out: Central Choroid concentration): 203 nM | concentration at 1 h ([1]; Group 14 (different batch of Compound-I): 4 mg/mL suspension, 50 μm particles, pH 6, QD for 4 days, read-out: Central Retina concentration): 38.4 nM | concentration at 1 h ([1]; Group 14 (different batch of Compound-I): 4 mg/mL suspension, 50 μm particles, pH 6, QD for 4 days, read-out: Cornea concentration): 3880 nM | Plasma concentration ([1]; Group 15 (different batch of Compound-I): 4 mg/mL suspension, 50 μm particles, pH 6, QD for 4 days): 4.69 nM | concentration at 1 h ([1]; Group 15 (different batch of Compound-I): 4 mg/mL suspension, 50 μm particles, pH 6, QD for 4 days, read-out: Central Choroid concentration): 196 nM | concentration at 1 h ([1]; Group 15 (different batch of Compound-I): 4 mg/mL suspension, 50 μm particles, pH 6, QD for 4 days, read-out: Central Retina concentration): 63 nM | concentration at 1 h ([1]; Group 15 (different batch of Compound-I): 4 mg/mL suspension, 50 μm particles, pH 6, QD for 4 days, read-out: Cornea concentration): 4230 nM | inhibition at 1 µM (AURKB (Aurora B)): 82%
